Results: BindingDB's records for patent US12544374 (Novartis, 2026)

Legend:
[1] = biological target: T1, Histone-lysine N-methyltransferase EZH2/Polycomb protein EED/Polycomb protein SUZ12 (Human, UniProt O75530+Q15022+Q15910); experiment: EZH2 LC-MS Assay
Protocol: Representative compounds of the invention were serially and separately diluted 3-fold in DMSO to obtain twelve concentrations. […] Solutions (6 μL) of 80 nM wild type PRC2 (wtPRC2) complex and 60 μM SAM in reaction buffer (20 mM Tris, pH 8.0, 0.1% BSA, 0.01% Triton, 0.5 mM DTT) were added to the wells that were then incubated with the test compound for 20 min. A 6 μL solution of 3 μM of the substrate peptide H3K27me1 (histone H3[21-44]-K27me1-biotin) and 6 μM regulatory peptide H3K27me3 (histone H3[21-44]-K27me3) in reaction buffer was added to initiate each reaction. […] The data were fit to a dose response equation using the program Helios to get the IC50 values of the test compound.

[2] = biological target: T1, Histone-lysine N-methyltransferase EZH2/Polycomb protein EED/Polycomb protein SUZ12; experiment: ELISA Assay
Protocol: ELISA protocol: Cell lysates were transferred to the wells of a 384-well plate and the final volume was adjusted to 50 μL per well with PBS. The plate was sealed, centrifuged at 2,000 rpm for 2 min and incubated at 4° C. for about 16 h. The plate was washed with TBST buffer (1×TBS (10×TBS: 24.2 g Tris (Sigma, T6066), 80 g NaCl (Sigma, S3014) to 1 L of water and adjust pH to 7.6 with HCl) with 0.1% Tween-20). Blocking buffer (TBST, 5% BSA; 50 μL per well) was added and the plate was incubated for 1 h at rt. The blocking buffer was removed and primary antibody was added (30 μL per well). […] The primary antibody was incubated in the plate at rt for 1 h. The wells were washed with TBST and incubated with secondary antibody for 1 h at rt.

T1 sequence (Q15910 whole entry): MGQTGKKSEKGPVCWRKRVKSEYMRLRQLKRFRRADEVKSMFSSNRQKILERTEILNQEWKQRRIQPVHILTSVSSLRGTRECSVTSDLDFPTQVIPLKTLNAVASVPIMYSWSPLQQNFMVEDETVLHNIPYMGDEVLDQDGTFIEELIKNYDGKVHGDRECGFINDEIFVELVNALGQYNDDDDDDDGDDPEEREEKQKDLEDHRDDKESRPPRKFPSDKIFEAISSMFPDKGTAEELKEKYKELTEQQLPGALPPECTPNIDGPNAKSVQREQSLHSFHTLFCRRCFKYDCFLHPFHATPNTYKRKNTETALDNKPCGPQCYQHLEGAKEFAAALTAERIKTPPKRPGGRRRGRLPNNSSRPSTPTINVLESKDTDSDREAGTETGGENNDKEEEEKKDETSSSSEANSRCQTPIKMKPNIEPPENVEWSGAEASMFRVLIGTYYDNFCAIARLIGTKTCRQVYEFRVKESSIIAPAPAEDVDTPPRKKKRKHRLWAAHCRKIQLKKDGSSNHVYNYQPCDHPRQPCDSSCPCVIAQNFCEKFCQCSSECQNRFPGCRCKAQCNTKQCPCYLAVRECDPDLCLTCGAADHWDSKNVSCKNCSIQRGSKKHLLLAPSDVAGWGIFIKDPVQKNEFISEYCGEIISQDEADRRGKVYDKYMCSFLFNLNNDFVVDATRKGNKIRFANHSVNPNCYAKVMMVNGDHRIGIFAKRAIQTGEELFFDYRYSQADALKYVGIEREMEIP
T1 sequence (O75530 whole entry): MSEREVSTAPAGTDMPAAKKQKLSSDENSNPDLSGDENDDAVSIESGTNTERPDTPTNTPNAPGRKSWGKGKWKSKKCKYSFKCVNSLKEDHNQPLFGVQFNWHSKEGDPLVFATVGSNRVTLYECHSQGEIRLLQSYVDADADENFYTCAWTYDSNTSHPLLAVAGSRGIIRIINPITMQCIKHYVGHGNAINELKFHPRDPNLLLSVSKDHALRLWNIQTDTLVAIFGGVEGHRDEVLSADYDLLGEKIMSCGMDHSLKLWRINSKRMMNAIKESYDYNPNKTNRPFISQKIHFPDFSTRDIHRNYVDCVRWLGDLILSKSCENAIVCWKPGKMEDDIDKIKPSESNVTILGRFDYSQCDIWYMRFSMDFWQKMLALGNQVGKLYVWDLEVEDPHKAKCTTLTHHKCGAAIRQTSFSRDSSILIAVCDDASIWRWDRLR
T1 sequence (Q15022 whole entry): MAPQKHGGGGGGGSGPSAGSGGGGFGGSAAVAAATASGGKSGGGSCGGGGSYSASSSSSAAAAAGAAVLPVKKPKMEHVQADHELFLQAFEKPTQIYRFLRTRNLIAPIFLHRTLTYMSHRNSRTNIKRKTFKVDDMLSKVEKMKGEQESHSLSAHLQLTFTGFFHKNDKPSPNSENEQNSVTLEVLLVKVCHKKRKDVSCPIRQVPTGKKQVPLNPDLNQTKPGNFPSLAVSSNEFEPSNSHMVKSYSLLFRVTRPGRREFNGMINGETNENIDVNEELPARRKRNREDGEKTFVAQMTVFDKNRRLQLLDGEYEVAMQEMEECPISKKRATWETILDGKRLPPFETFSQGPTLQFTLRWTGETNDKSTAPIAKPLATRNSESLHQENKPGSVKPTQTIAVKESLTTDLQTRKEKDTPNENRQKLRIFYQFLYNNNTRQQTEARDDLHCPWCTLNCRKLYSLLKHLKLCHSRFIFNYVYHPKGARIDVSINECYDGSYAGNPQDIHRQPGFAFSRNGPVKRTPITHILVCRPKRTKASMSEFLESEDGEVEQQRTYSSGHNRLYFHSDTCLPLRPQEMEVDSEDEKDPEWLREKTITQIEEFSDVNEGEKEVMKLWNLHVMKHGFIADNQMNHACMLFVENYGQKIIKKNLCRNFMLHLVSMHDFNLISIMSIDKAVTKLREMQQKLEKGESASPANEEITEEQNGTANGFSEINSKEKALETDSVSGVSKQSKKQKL

Row | IC50 [1] [nM] | IC50 [2] [nM] | SMILES
1 | 15 | 27 | COCCOC(=O)Nc1cnc(NCC2CCC(Nc3ccc4ccnc(Cl)c4n3)CC2)nc1 (stereo not drawn) [US12544374, Compound C16]
2 | 27 | – | Clc1nccc2ccc(NC3CCC(CNc4ncc(COC5COC5)cn4)CC3)nc12 (stereo not drawn) [US12544374, Compound C35]
